For 5 molecules, inhibition and IC50 results are on record in publication PMC8348017 (Molecules, 2021).

Common to all, as to type: biochemical
In one assay the target is T1, hMAO-A (Homo sapiens, UniProt P21397).
T1 construct: gene MAOA; recombinant hMAO-A
T1 sequence (P21397 1-527): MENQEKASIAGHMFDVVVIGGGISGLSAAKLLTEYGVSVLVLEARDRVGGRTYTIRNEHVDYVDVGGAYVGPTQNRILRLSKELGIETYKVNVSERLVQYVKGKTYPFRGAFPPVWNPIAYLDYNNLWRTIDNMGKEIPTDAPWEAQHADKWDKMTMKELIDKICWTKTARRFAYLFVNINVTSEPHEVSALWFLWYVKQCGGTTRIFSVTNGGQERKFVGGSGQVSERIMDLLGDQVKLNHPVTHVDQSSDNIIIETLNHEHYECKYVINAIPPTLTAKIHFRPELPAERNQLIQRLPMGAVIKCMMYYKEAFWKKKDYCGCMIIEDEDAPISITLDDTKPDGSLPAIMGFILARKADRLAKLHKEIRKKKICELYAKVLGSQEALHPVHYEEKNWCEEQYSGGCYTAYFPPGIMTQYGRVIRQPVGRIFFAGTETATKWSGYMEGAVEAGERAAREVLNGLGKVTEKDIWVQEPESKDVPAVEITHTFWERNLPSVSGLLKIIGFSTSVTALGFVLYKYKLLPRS
The experiment in a line: Amplex Red MAO fluorimetric assay, % inhibition at […]. The conditions noted are these: read-out: hMAO-A % Inh 100 μM.

The target in another assay is T2, hBuChE (Homo sapiens, UniProt P06276).
T2 construct: gene BCHE; BuChE isolated from human serum
The assay is described as follows: Ellman assay, % inhibition at […]. The settings on record: read-out: hBuChE % Inh 100 μM.

Assay [1] has as its target T3, hMAO-B (Homo sapiens, UniProt P27338).
T3 construct: gene MAOB; recombinant hMAO-B
T3 sequence (P27338 2-520): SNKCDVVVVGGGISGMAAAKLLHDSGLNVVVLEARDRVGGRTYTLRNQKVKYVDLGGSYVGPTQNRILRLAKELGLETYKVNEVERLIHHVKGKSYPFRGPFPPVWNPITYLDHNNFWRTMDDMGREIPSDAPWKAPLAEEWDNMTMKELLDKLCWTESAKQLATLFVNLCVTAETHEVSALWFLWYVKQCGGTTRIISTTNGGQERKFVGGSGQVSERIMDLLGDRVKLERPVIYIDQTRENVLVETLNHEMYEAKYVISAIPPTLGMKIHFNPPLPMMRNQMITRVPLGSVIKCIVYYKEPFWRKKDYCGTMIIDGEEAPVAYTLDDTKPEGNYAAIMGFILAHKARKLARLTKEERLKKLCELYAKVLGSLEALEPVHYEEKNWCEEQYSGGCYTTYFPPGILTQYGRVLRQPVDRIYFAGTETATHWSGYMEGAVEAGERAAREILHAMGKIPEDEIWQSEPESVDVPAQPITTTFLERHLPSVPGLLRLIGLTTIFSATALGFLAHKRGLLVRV
The assay is described as follows: Amplex Red MAO fluorimetric assay, recombinant enzyme, p-tyramine substrate.

For assay [2], the target named is T3, hMAO-B. The experiment in a line: Amplex Red MAO fluorimetric assay, % inhibition at […]. The conditions noted are these: read-out: hMAO-B % Inh 100 μM.

Structures are written as SMILES.

The IC50 is the concentration at which inhibition is half-maximal.

T2 sequence (P06276 29-602): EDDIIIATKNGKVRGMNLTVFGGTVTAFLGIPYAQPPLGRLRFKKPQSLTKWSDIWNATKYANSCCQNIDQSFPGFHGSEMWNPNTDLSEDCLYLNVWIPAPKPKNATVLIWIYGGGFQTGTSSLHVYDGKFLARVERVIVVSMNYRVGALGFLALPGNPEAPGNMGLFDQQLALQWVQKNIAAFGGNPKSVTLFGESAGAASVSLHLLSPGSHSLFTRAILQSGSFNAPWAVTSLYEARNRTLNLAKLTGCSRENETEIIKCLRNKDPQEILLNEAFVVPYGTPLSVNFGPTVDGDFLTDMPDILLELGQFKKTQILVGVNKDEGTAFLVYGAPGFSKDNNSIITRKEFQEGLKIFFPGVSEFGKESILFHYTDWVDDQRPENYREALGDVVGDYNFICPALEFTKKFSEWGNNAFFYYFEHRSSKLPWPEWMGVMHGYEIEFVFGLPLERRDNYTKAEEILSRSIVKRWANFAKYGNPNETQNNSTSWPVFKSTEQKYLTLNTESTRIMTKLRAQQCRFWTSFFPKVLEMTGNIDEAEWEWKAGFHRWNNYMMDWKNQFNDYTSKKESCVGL

Take `O=C(/C=C(O)/C=C/c1cc(O)c(O)cc1O)/C=C/c1cc2ccc(O)c(O)c2oc1=O` [compound 12, 7,8-Dihydroxy-3-(7-(2′,4′,5′-trihydroxyphenyl)-3,5-dioxohepta-1,6-dien-1-yl)coumarin]: the inhibition at 100 µM at hMAO-A worked out at 60.9 ± 4.09%. In the case of `O=C(/C=C(O)/C=C/c1cc(O)c(O)c(O)c1)/C=C/c1cc2ccc(O)c(O)c2oc1=O` [compound 14, 7,8-Dihydroxy-3-(7-(3′,4′,5′-trihydroxyphenyl)-3,5-dioxohepta-1,6-dien-1-yl)coumarin], the inhibition at 100 µM on hMAO-A was determined as 54.3 ± 3.64%.

With `O=C(/C=C/c1c(O)cc(O)cc1O)CC(=O)/C=C/c1cc2cc(O)c(O)cc2oc1=O` [compound 15, 6,7-Dihydroxy-3-(7-(2′,4′,6′-trihydroxyphenyl)-3,5-dioxohepta-1,6-dien-1-yl)coumarin], at hBuChE, the inhibition at 100 µM is 50.9 ± 3.41%.

Take `O=C(/C=C(O)/C=C/c1cc(O)c(O)cc1O)/C=C/c1cc2cc(O)c(O)cc2oc1=O` [compound 16, 6,7-Dihydroxy-3-(7-(2′,4′,5′-trihydroxyphenyl)-3,5-dioxohepta-1,6-dien-1-yl)coumarin]: the IC50 on hMAO-B [1] is 26.2 ± 1.76 µM. The inhibition at 100 µM on hMAO-A was found to be 58.2 ± 3.9%. In the case of `O=C(/C=C(O)/C=C/c1cc(O)c(O)c(O)c1)/C=C/c1cc2cc(O)c(O)cc2oc1=O` [compound 18, 6,7-Dihydroxy-3-(7-(3′,4′,5′-trihydroxyphenyl)-3,5-dioxohepta-1,6-dien-1-yl)coumarin], the inhibition at 100 µM at hMAO-A was found to be 51.5 ± 3.45%; on hMAO-B [2], 55.7 ± 3.74%.
